Measurements published in patent publication US8859574B2 (IRM LLC, priority 2008, dated 2014).

Biological target: T1, IGF-1R Ba/F3 (Homo sapiens, UniProt P08069)
T1 construct: fused on or other part: TEL- (or BCR-) IGF-1R in Ba/F3: the kinase part holds the site
Assay: Ba/F3 Cell Viability Inhibition Assay (IGF-1R Ba/F3)
Type: cell-based, murine
Conditions: Tel-TK transformed Ba/F3 cells, 48 hours, Britelite luminescence
How it was run: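 A 48 h compound treatment at 37 °C (3750 cells/well) was followed by Britelite luminescence to measure viability. Cells were Ba/F3 pro-B cells, IL-3-independent via TEL-fused IGF-1R kinase transduction. A logistic fit gave IC50 as 50% viability relative to DMSO control.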

T1 sequence (P08069 999-1274 limits assumed): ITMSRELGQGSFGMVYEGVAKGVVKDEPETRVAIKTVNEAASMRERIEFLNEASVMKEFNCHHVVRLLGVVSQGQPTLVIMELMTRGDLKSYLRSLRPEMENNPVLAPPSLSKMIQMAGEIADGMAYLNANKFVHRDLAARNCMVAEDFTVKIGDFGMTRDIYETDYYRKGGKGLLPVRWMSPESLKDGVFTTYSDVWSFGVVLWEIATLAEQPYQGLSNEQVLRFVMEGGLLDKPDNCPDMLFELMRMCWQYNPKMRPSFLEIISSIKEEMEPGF

Structure (SMILES)	IC50
Cc1cc(Nc2nc(Nc3cc(C)c(C4CCN(CCCS(=O)(=O)N5CCC5)CC4)cc3F)ncc2Cl)n[nH]1 [Compound 243, N2-(4-(1-(3-(azetidin-1-ylsulfonyl)propyl)piperidin-4-yl)-2-fluoro-5-methylphenyl)-5-chloro-N4-(5-methyl-1H-pyrazol-3-yl)pyrimidine-2,4-diamine]	0.076 µM
Cc1cc(Nc2nc(Nc3cc(C)c(C4CCN(CCCS(=O)(=O)N5CCCC5)CC4)cc3F)ncc2Cl)n[nH]1 [Compound 244, 5-chloro-N2-(2-fluoro-5-methyl-4-(1-(3-(pyrrolidin-1-ylsulfonyl)propyl)piperidin-4-yl)phenyl)-N4-(5-methyl-1H-pyrazol-3-yl)pyrimidine-2,4-diamine]	0.084 µM
Cc1cc(Nc2nc(Nc3cc(C)c(C4CCN(CCCS(=O)(=O)N5CCOCC5)CC4)cc3F)ncc2Cl)n[nH]1 [Compound 245, 5-chloro-N2-(2-fluoro-5-methyl-4-(1-(3-(morpholinosulfonyl)propyl)piperidin-4-yl)phenyl)-N4-(5-methyl-1H-pyrazol-3-yl)pyrimidine-2,4-diamine]	0.077 µM
Cc1cc(Nc2nc(Nc3cc(C)c(C4CCN(CCCC(=O)N5CCOCC5)CC4)cc3F)ncc2Cl)n[nH]1 [Compound 246, 4-(4-(4-(5-Chloro-4-(5-methyl-1H-pyrazol-3-ylamino)pyrimidin-2-ylamino)-5-fluoro-2-methylphenyl)piperidin-1-yl)-1-morpholinobutan-1-one]	0.058 µM
Cc1cc(Nc2nc(Nc3cc(C)c(C4CCN(CCC(=O)NC5CC5)CC4)cc3F)ncc2Cl)n[nH]1 [Compound 247, 3-(4-(4-(5-chloro-4-(5-methyl-1H-pyrazol-3-ylamino)pyrimidin-2-ylamino)-5-fluoro-2-methylphenyl)piperidin-1-yl)-N-cyclopropylpropanamide]	0.062 µM
Cc1cc(Nc2nc(Nc3cc(C)c(C4CCN(CCC(N)=O)CC4)cc3F)ncc2Cl)n[nH]1 [Compound 248, 3-(4-(4-(5-chloro-4-(5-methyl-1H-pyrazol-3-ylamino)pyrimidin-2-ylamino)-5-fluoro-2-methylphenyl)piperidin-1-yl)propanamide]	0.14 µM
Cc1cc(Nc2nc(Nc3cc(C)c(C4CCN(CC5CC5(F)F)CC4)cc3C)ncc2Cl)n[nH]1 (stereo not drawn) [Compound 249, 5-chloro-N2-(4-(1-((2,2-difluorocyclopropyl)methyl)piperidin-4-yl)-2,5-dimethylphenyl)-N4-(5-methyl-1H-pyrazol-3-yl)pyrimidine-2,4-diamine]	0.032 µM
Cc1cc(Nc2nc(Nc3cc(C)c(C4CCN(C5CC5)CC4)cc3C)ncc2Cl)n[nH]1 [Compound 250, 5-chloro-N2-(4-(1-cyclopropylpiperidin-4-yl)-2,5-dimethylphenyl)-N4-(5-methyl-1H-pyrazol-3-yl)pyrimidine-2,4-diamine]	0.025 µM
Cc1cc(Nc2nc(Nc3cc(C)c(C4CCN(CC5CC5(F)F)CC4)cc3F)ncc2C(F)(F)F)n[nH]1 (stereo not drawn) [Compound 251, N^2-(4-(1-((2,2-difluorocyclopropyl)methyl)piperidin-4-yl)-2-fluoro-5-methylphenyl)-N^4-(5-methyl-1H-pyrazol-3-yl)-5-(trifluoromethyl)pyrimidine-2,4-diamine]	0.052 µM
Cc1cc(Nc2nc(Nc3cc(C)c(C4CCN(C5CCOCC5)CC4)cc3C)ncc2Cl)n[nH]1 [Compound 252, 5-chloro-N2-(2,5-dimethyl-4-(1-(tetrahydro-2H-pyran-4-yl)piperidin-4-yl)phenyl)-N4-(5-methyl-1H-pyrazol-3-yl)pyrimidine-2,4-diamine]	0.014 µM
Cc1cc(Nc2nc(Nc3cc(C(F)(F)F)c(C4CCNCC4)cc3F)ncc2Cl)n[nH]1 [Compound 253, 5-chloro-N2-(2-fluoro-4-(piperidin-4-yl)-5-(trifluoromethyl)phenyl)-N4-(5-methyl-1H-pyrazol-3-yl)pyrimidine-2,4-diamine]	0.075 µM
Cc1cc(Nc2nc(Nc3cc(C(F)(F)F)c(C4CCNCC4)cc3C)ncc2Cl)n[nH]1 [Compound 254, 5-chloro-N4-(5-methyl-1H-pyrazol-3-yl)-N2-(2-methyl-4-(piperidin-4-yl)-5-(trifluoromethyl)phenyl)pyrimidine-2,4-diamine]	0.07 µM
Cc1cc(Nc2ncc(Cl)c(Nc3cc(C4CC4)[nH]n3)n2)c(F)cc1C1CCN(C2CC2)CC1 [Compound 255, 5-chloro-N4-(5-cyclopropyl-1H-pyrazol-3-yl)-N2-(4-(1-cyclopropylpiperidin-4-yl)-2-fluoro-5-methylphenyl)pyrimidine-2,4-diamine]	0.228 µM
Cc1cc(Nc2nc(Nc3cc(C)c(C4CCNCC4)cc3C)ncc2Cl)n[nH]1 [Compound 256, 5-chloro-N2-(2,5-dimethyl-4-(piperidin-4-yl)phenyl)-N4-(5-methyl-1H-pyrazol-3-yl)pyrimidine-2,4-diamine]	0.044 µM
Cc1cc(Nc2nc(Nc3cc(C)c(C4CCNCC4)cc3C)ncc2C(F)(F)F)n[nH]1 [Compound 257, N^2-(2,5-dimethyl-4-(piperidin-4-yl)phenyl)-N^4-(5-methyl-1H-pyrazol-3-yl)-5-(trifluoromethyl)pyrimidine-2,4-diamine]	0.064 µM
Cc1cc(C2CCN(C3CC3)CC2)c(C)cc1Nc1ncc(Cl)c(Nc2cc(C3CC3)[nH]n2)n1 [Compound 258, 5-chloro-N4-(5-cyclopropyl-1H-pyrazol-3-yl)-N2-(4-(1-cyclopropylpiperidin-4-yl)-2,5-dimethylphenyl)pyrimidine-2,4-diamine]	0.026 µM
Cc1cc(Nc2nc(Nc3cc(C)c(C4CCN(Cc5nc(C(C)C)no5)CC4)cc3F)ncc2Cl)n[nH]1 [Compound 259, 5-Chloro-N^2-(2-fluoro-4-(1-((3-isopropyl-1,2,4-oxadiazol-5-yl)methyl)piperidin-4-yl)-5-methylphenyl)-N-(5-methyl-1H-pyrazol-3-yl)pyrimidine-2,4-diamine]	0.064 µM
Cc1cc(Nc2nc(Nc3cc(C)c(C4CCN(Cc5nc(C(C)C)no5)CC4)cc3C)ncc2Cl)n[nH]1 [Compound 260, 5-chloro-N2-(4-(1-((3-isopropyl-1,2,4-oxadiazol-5-yl)methyl)piperidin-4-yl)-2,5-dimethylphenyl)-N4-(5-methyl-1H-pyrazol-3-yl)pyrimidine-2,4-diamine]	0.018 µM
CCc1cc(Nc2ncc(Cl)c(Nc3cc(C)[nH]n3)n2)c(C)cc1C1CCN(CC(N)=O)CC1 [Compound 261, 2-(4-(4-(5-chloro-4-(5-methyl-1H-pyrazol-3-ylamino)pyrimidin-2-ylamino)-2-ethyl-5-methylphenyl)piperidin-1-yl)acetamide]	0.027 µM
COc1cc(Nc2ncc(Cl)c(Nc3cc(C)[nH]n3)n2)c(C)cc1C1CCN(CC(N)=O)CC1 [Compound 262, 2-(4-(4-(5-chloro-4-(5-methyl-1H-pyrazol-3-ylamino)pyrimidin-2-ylamino)-2-methoxy-5-methylphenyl)piperidin-1-yl)acetamide]	0.019 µM
CCc1cc(Nc2nc(Nc3cc(C)c(C4CCN(CC(N)=O)CC4)cc3F)ncc2Cl)n[nH]1 [Compound 263, 2-(4-(4-(5-chloro-4-(5-ethyl-1H-pyrazol-3-ylamino)pyrimidin-2-ylamino)-5-fluoro-2-methylphenyl)piperidin-1-yl)acetamide]	0.033 µM
